Non-standard residues stand in square brackets, D forms with d. No end group written: not given here. pY = N[C@@H](Cc1ccc(OP(=O)(O)O)cc1)C(=O)O
Test system: MCF7 xenograft
Assay: Electroporation tumour therapy of MCF7 xenografts
Type: in vivo, SCID mice
Protocol: Xeno-grafts. In vivo tests have been carried out using 40 day old SCID female mice (Harlan Laboratories, Milan, IT). At day 0, animals have been totally anesthetized with intramuscular injection of 400 μg/animal (average weight 25 g) of Zoletil (Virbac) containing 0.12% Xylor (Xylazine), and transplanted subcutaneously (s.c.), in intrascapular mouse region with pellet of […] (1.7 mg/sustained release pellet over 60 days, Innovative Research of America, Sarasota, Fla.). On the next day, 5×10^6 proliferating and scr and 1257 peptide previously transfected, as above described, MCF7 or BT474 cells, have been re-suspended in 0.1 ml of Matrigel (BD Biosciences) and subcutaneously inoculated in each mouse. […] Tumour growth has been monitored two times weekly using calibration along two orthogonal axes: length (L) and […]. The tumour volume (V) has been calculated using the formula V=L*(W2)/2. All the procedures relating to animals and treatment thereof have been carried out according institutional guidelines.
Electroporation tumour therapy. […] A dilute solution of 1257 peptide (75 ug) in 15 ul of sterile PBS has been directly injected in each xenograft, which subsequently has been electrode pulsed. PBS diluted scr peptide has been used as control, according to same procedure. As a further control we have analyzed two groups of not peptide injected animals, except that one of two was subjected to electroporation. Therapy has been repeated once weekly, and tumour size monitored up to 70 days.
Tumour size has been measured at regular intervals (alternate days) using a caliber and tumour volume has been calculated as above described. In order to minimize animal pain during the electroporation, tests have been carried out under total anesthesia. All the procedures concerning animals and treatment thereof have been carried out according to institutional guidelines.
In an attempt to use an experimental approach mimicking human therapy, scr or 1257 phosphopeptides has been administered directly into tumour. The administration of the peptide has been carried out by injection and successive electroporation in order to allow the phosphopeptide penetration. This technique facilitating the drug absorption from the tumour is used for human mainly to treat superficial lesions like melanomas, skin tumours or cutaneous metastases, but currently it is also used for carcinomas during pre-operation sessions. The peptide administration has been carried out when the tumour volume was 200 mm^3.

[1] = intra-tumour injection + electroporation once weekly, MCF7

RDGGGPGGDpYAAMGACPA (RDGGGPGGD[pY]AAMGACPA; listed as Homo sapiens) [1257 phosphopeptide]
apoptosis in tumours (TUNNEL assay) (immunohistochemistry of electroporation treated tumours (FIG. 9A)): go in apoptosis
proliferation in tumours (Ki67 assay) (immunohistochemistry of electroporation treated tumours (FIG. 9B)): low proliferating index
inhibition of tumour growth compared to control not treated tumours [1]: 58%
inhibition of tumour growth compared to scr peptide inoculated tumours [1]: 50%
